The values below come from PMC10499915 (Scientific Reports, 2023).

One data set has as its system E.coli ATCC 25922. It is filed as cell-based, Escherichia coli. Conditions: ATCC 25922, 18 h. Here is the method:
(§1) The bacterial strains used were Escherichia coli ATCC 25922, Staphylococcus aureus ATCC 25923, Klebsiella pneumoniae ATCC 700603, Acinetobacter baumannii ATCC 19606, Pseudomonas aeruginosa ATCC 27853 and Staphylococcus epidermidis ATCC 12228. The reference bacterial strains used were purchased from American Type Culture Collection (ATCC) (Manassas, Virginia, USA). They were grown overnight (o/n) at 37 °C in complete Müller-Hinton broth (MHB, Difco) medium with shaking (130 rpm). The day after, the overnight bacterial cultures were diluted in fresh MHB (300 μL o/n culture in 10 mL) and incubated at 37 °C with shaking (130 rpm) for approximately 2 h (mid-log phase) until reaching an optical density (OD) at 600 nm (OD600) ≈ 0.3.
(§2) Peptides diluted in MHB to a concentration of 128 μM were added to the first column of wells of a 96-well round-bottom microtiter plate (Sarstedt, Milan, Italy) and serially diluted (1:2) in a final volume of 50 μL MHB was added to the next wells. Then, a mid-log bacterial cultures (OD 600≈ 0.3) were diluted to 5 × 10^5 colony-forming units (CFU)/mL in MHB and 50 μL of this bacterial suspension was added to each well. In this way, the final bacterial concentration was reduced to 2.5 × 10^5 CFU/mL and the peptide concentration in the wells was also halved in a final volume of 100 μL (final bacteria load was 2.5 × 10^4 CFU/well). The same amount of untreated bacteria in MHB was used as a control for bacterial growth. […] MIC was determined by visual inspection at the end of incubation as the first clear well. Data are reported as moda of independent experiments repeated three times or four times in case of uncertain values.

The next data set has as its system S.aureus ATCC 25923. It is filed as cell-based, Staphylococcus aureus. Here is the method:
as §1, §2

A further data set concerns A.baumanni ATCC 19606. Format: cell-based, Acinetobacter baumannii. The following applies: ATCC 19606, 18 h. The procedure: as §1, §2
In the next data set the test system is K.pneumoniae ATCC 700603. Format: cell-based, Klebsiella pneumoniae. The following applies: ATCC 700603, 18 h. The procedure: as §1, §2
The subject of the next data set is P.aeruginosa ATCC 27853. Format: cell-based, Pseudomonas aeruginosa. The following applies: ATCC 27853, 18 h. Here is the method: as §1, §2
Another data set relates to S.epidermidis ATCC 12228. It is filed as cell-based, Staphylococcus epidermidis. The following applies: ATCC 12228, 18 h. Here is the method:
as §1, §2

Data set [1] has as its system ram red blood cells (RBCs). Conditions: 4% v/v ram RBCs in PBS, 1 h, 37 °C, absorbance 540 nm, 100% = 1% Triton X-100; all concentrations tested; n = 3. Here is the method: The lytic potential towards eukaryotic cell membranes was assessed by measuring the release of haemoglobin from commercial ram red blood cells (RBCs) (Microbiol s.r.l., Cagliari, Italy) after exposure to the peptides. First, erythrocytes were isolated by centrifugation, washed with PBS and then suspended at 8% (v/v) in PBS. Secondly, 100 µL erythrocytes suspension was added into each well of a 96-well microplate. Then, 100 µL peptide solution was added to each well at different concentrations (the final concentration of erythrocytes suspension was 4% v/v), and the plates were incubated for 1 h at 37 °C and centrifuged at 1000 g for 10 min. Finally, 100 µL aliquots of supernatant were transferred to fresh 96-well microplate, and the release of haemoglobin was monitored by measuring the absorbance at 540 nm with Tecan microplate reader (Tecan Trading AG, Switzerland). 0% and 100% haemolysis were determined in PBS and 1% Triton X-100, respectively.

In another data set the test system is HaCaT cell line. Conditions: 24 h.
The next data set deals with chymotrypsin. Description: chymotrypsin (Sigma–Aldrich), 1.25 µg of enzyme in 150 µl buffer; Tris·HCl 50 mM, pH 7.8. The following applies: 37 °C, up to 24 h.
The nature of data set [2]: Hydrophobicity by RP-HPLC retention time. It is filed as physicochemical. The following applies: for Retention time tR: used as measure of hydrophobicity, RP-HPLC, Phenomenex Luna C18 (100 Å, 5µ), linear gradient 5%B to 95%B over 30 min, A 0.1% TFA in 9:1 water:acetonitrile, B 0.1% TFA in 9:1 acetonitrile:water, 1 mL/min, peptide 0.5 mg/mL in MeOH, UV 215 and 280 nm; for Hydrophobicity ΔtR: ΔtR = tR(x)−tR(a), relative to compound a, RP-HPLC C18, 5%–95%B over 30 min. Here is the method:
Peptide hydrophobicity was calculated as difference in retention times between peptide analogues b–h and peptide a. Each peptide was dissolved in MeOH to a concentration of 0.5 mg/mL and then subjected to RP-HPLC on an analytical Phenomenex Luna C18 (100 Å, 5µ) column using 0.1% TFA in 9:1 water:acetonitrile as solvent A, and 0.1% TFA in 9:1 acetonitrile:water as solvent B. The peptides were eluted using a linear gradient as follows: 5%B to 95%B over 30 min. The flow rate was 1 mL/min and the absorbance was measured at 215 nm and 280 nm. The retention time was recorded for each peptide.

Data set [3] concerns E. coli, A. baumannii, K. pneumoniae, P. aeruginosa, and S. epidermidis strains. Format: cell-based. The following applies: 18 h. Here is the method: as §1, §2
For data set [4] the following is noted: 4h and 24 h incubation, different concentrations.

Values after ≈ are worked out from the molar mass of the structure shown. “Also recorded” adds a separate entry of the source. Read-outs that look alike come from different tables or passages of the source. Square brackets hold non-standard residues; d marks the D form. Peptide text beside a SMILES is read from it. * marks the point of attachment. Lauroyl = CCCCCCCCCCCC(=O)*; Octanoyl = CCCCCCCC(=O)*; Aun = NCCCCCCCCCCC(=O)O

What is called MIC is the smallest concentration in the dilution series that meets the test's criterion for growth inhibition.

Protocol for HaCaT cell line: Cytotoxicity was measured by the MTT assay on human immortalized epidermal keratinocyte HaCaT cell line (DKFZ, Eppelheim, Germany). The HaCaT cells were grown in high-glucose Dulbecco’s modified Eagle’s medium (DMEM) (Sigma-Aldrich, Milan, Italy). DMEM medium was supplemented with 10% foetal bovine serum (FBS; Sigma, Milan, Italy), 2 mM glutamine (Sigma, Milan, Italy), 100 U/mL penicillin (Sigma, Milan, Italy) and 100 µg/mL streptomycin (Sigma, Milan, Italy). The cells were maintained at 37 °C in the presence of 5% CO2 and in a humidified incubator.
Cells were counted in a Burker-Türk chamber to prepare a suspension of 2 × 10^5 cells/ml in DMEM High Glucose Complete Medium (Sigma-Aldrich, Milan, Italy). 100 μL of this suspension was added to the wells of a 96-well flat-bottom transparent microtiter plate (Euroclone, Milan, Italy) specially treated for tissue culture. The plate was incubated for 24 h at 37 °C and 5% CO2 to allow the cells in each well to reach a semiconfluent state. The following day, serial dilutions (1:2) of the peptides, starting with 64 μM, were prepared in DMEM medium, and 100 μL of these solutions were used to replace the medium in the plate with HaCaT cells. The same amount of untreated DMEM high-glucose medium was used as a cell growth control. DMEM high-glucose complete medium (100 μL) was used as a negative control to check the sterility of the medium. The plate was sealed with Parafilm to minimize evaporation and incubated at 37 °C and 5% CO2 for 20 h. Then, 25 μL MTT (Sigma-Aldrich, Milan, Italy) dissolved in phosphate-buffered saline (PBS) was added to each well to a final concentration of 1 mg/mL MTT, and the plate was incubated for 4 h in the dark at 37 °C and 5% CO2.
At the end of incubation, 100 μL 10% (w/v) Igepal (Sigma-Aldrich, Milan, Italy) in 10 mM HCl was added to each well, and the plate was incubated overnight in the dark at 37 °C and 5% CO2. The absorbance of MTT at 570 nm was measured using a Nanoquant Infinite-M200Pro plate reader (Tecan, Männedorf, Switzerland). Student’s t-test was performed for all samples.

As to `CC[C@H](C)[C@H](NC(=O)[C@H](CO)NC(=O)CNC(=O)[C@@H](NC(=O)[C@@H](NC(=O)[C@H](CCCCN)NC(=O)[C@H](C)NC(=O)[C@@H](NC(=O)[C@H](Cc1c[nH]c2ccccc12)NC(=O)[C@H](CCCCN)NC(=O)[C@H](CC(C)C)NC(=O)[C@@H](NC(=O)[C@H](CCCCN)NC(=O)CNC(=O)[C@@H](NC(=O)[C@H](CCCCN)NC(=O)[C@H](CCCCN)NC(=O)[C@H](CC(C)C)NC(=O)[C@H](CCCNC(=N)N)NC(=O)[C@H](CCCCN)NC(C)=O)[C@@H](C)CC)C(C)C)[C@@H](C)CC)[C@@H](C)CC)C(C)C)C(=O)NCCCCCCCCCCC(N)=O` [f] (Ac-KRLKKIGKVLKWIAKIVGSI[Aun]-NH2), the MIC stood at 8 µM (≈ 20 µg/mL) with E.coli ATCC 25922; 8 µM (≈ 20 µg/mL) against S.aureus ATCC 25923 (ATCC 25923, 18 h); 4 µM (≈ 10 µg/mL) against A.baumanni ATCC 19606; 16 µM (≈ 40.1 µg/mL) against K.pneumoniae ATCC 700603; 16 µM (≈ 40.1 µg/mL) against P.aeruginosa ATCC 27853; 8 µM (≈ 20 µg/mL) against S.epidermidis ATCC 12228. Also, in [1], the “membranolytic (haemolytic) effect on erythrocytes” value (“membranolytic (haemolytic) effect” below) is “significant lytic effect”. Moreover, the “HC50 (cytotoxicity on HaCaT cells)” value in the data set on HaCaT cell line is below 32 µM.
With Oct-KRLKKIGKVLKWIAKIVGSI-NH2, in the data set on chymotrypsin, the cleaved bond entry is “Leu21-Lys22, first_seen, within a 30-min incubation; also recorded: Trp23-Ile24, first_seen, within a 30-min incubation; also recorded: Leu14-Lys15, within a 30-min incubation”.
Same read-out and setting: under Ac-KRLKKIGKVLKWIPPIVGSI-NH2 stands “Leu21-Lys22, first_seen, within a 30-min incubation”; under “Ac-KRLKKIGKVLKWIAKIVGSI[Aun]-NH2 (SMILES CC[C@H](C)[C@H](NC(=O)[C@H](CO)NC(=O)CNC(=O)[C@@H](NC(=O)[C@@H](NC(=O)[C@H](CCCCN)NC(=O)[C@H](C)NC(=O)[C@@H](NC(=O)[C@H](Cc1c[nH]c2ccccc12)NC(=O)[C@H](CCCCN)NC(=O)[C@H](CC(C)C)NC(=O)[C@@H](NC(=O)[C@H](CCCCN)NC(=O)CNC(=O)[C@@H](NC(=O)[C@H](CCCCN)NC(=O)[C@H](CCCCN)NC(=O)[C@H](CC(C)C)NC(=O)[C@H](CCCNC(=N)N)NC(=O)[C@H](CCCCN)NC(C)=O)[C@@H](C)CC)C(C)C)[C@@H](C)CC)[C@@H](C)CC)C(C)C)C(=O)NCCCCCCCCCCC(N)=O)”, “Leu21-Lys22, first_seen, within a 30-min incubation; also recorded: Trp23-Ile24, first_seen, within a 30-min incubation; also recorded: Leu14-Lys15, after longer incubation times”; under Ac-KRLKKIGKVUKWI-NH2, “Leu14-Lys15, within a 30-min incubation; also recorded: Trp23-Ile24, after longer incubation times”.
Ac-KRLKKIGKVLKWIPPIVGSI-NH2 [a]: the “Retention time tR” value in data set [2] came out at 13.2 min. Besides, the “Hydrophobicity ΔtR” value in data set [2] came to 0. For the same compound, the MIC in the data set with E.coli ATCC 25922 stood at 2 µM; against S.aureus ATCC 25923 (S.aureus ATCC 25923, Mueller–Hinton broth, 18 h, 37 °C, 2.5 × 10^5 CFU/mL, visual, mode of three independent tests), 64 µM; with A.baumanni ATCC 19606 it was 1 µM; in the data set with K.pneumoniae ATCC 700603, 1 µM; with P.aeruginosa ATCC 27853, 4 µM; in the data set with S.epidermidis ATCC 12228 it was 2 µM. Also, the “MIC, span over all tested bacterial strains except S. aureus” value in data set [3] was 1 to 4 µM.
As for Ac-KRLKKIGKVLKWIAKIVGSI-NH2, the cleaved bond entry in the data set on chymotrypsin is listed as “Leu21-Lys22, first_seen, within a 30-min incubation; also recorded: Leu14-Lys15, after longer incubation times; also recorded: Trp23-Ile24, after longer incubation times”.
On to `CCCCCCCC(=O)N[C@@H](CCCCN)C(=O)N[C@@H](CCCNC(=N)N)C(=O)N[C@@H](CC(C)C)C(=O)N[C@@H](CCCCN)C(=O)N[C@@H](CCCCN)C(=O)N[C@H](C(=O)NCC(=O)N[C@@H](CCCCN)C(=O)N[C@H](C(=O)N[C@@H](CC(C)C)C(=O)N[C@@H](CCCCN)C(=O)N[C@@H](Cc1c[nH]c2ccccc12)C(=O)N[C@H](C(=O)N[C@@H](C)C(=O)N[C@@H](CCCCN)C(=O)N[C@H](C(=O)N[C@H](C(=O)NCC(=O)N[C@@H](CO)C(=O)N[C@H](C(N)=O)[C@@H](C)CC)C(C)C)[C@@H](C)CC)[C@@H](C)CC)C(C)C)[C@@H](C)CC` [c] (Octanoyl-KRLKKIGKVLKWIAKIVGSI-NH2), for which, in [2], the “Retention time tR” value came out at 22.3 min. Besides, the “Hydrophobicity ΔtR” value in data set [2] was 9.1. For the same compound, the MIC amounted to 16 µM (≈ 38.5 µg/mL) against E.coli ATCC 25922; 16 µM (≈ 38.5 µg/mL) against S.aureus ATCC 25923 (ATCC 25923, 18 h); 8 µM (≈ 19.2 µg/mL) in the data set on A.baumanni ATCC 19606; 16 µM (≈ 38.5 µg/mL) in the data set with K.pneumoniae ATCC 700603; 32 µM (≈ 76.9 µg/mL) against P.aeruginosa ATCC 27853; 8 µM (≈ 19.2 µg/mL) in the data set with S.epidermidis ATCC 12228. The “membranolytic (haemolytic) effect” value in data set [1] was “significant lytic effect”. In addition, the “HC50 (cytotoxicity on HaCaT cells)” value in the data set with HaCaT cell line is below 32 µM. For the same compound, the “solubility in Müller-Hinton broth” value in data set [4] is “low solubility”.
As to Lau-KRLKKIGKVLKWIAKIVGSI-NH2, the cleaved bond entry with chymotrypsin is recorded as “Trp23-Ile24, after longer incubation times; also recorded: Leu21-Lys22, first_seen, within a 30-min incubation; also recorded: Leu14-Lys15, after longer incubation times”.
For the compound `CCCCCCCCCCCC(=O)N[C@@H](CCCCN)C(=O)N[C@@H](CCCNC(=N)N)C(=O)N[C@@H](CC(C)C)C(=O)N[C@@H](CCCCN)C(=O)N[C@@H](CCCCN)C(=O)N[C@H](C(=O)NCC(=O)N[C@@H](CCCCN)C(=O)N[C@H](C(=O)N[C@@H](CC(C)C)C(=O)N[C@@H](CCCCN)C(=O)N[C@@H](Cc1c[nH]c2ccccc12)C(=O)N[C@H](C(=O)N[C@@H](C)C(=O)N[C@@H](CCCCN)C(=O)N[C@H](C(=O)N[C@H](C(=O)NCC(=O)N[C@@H](CO)C(=O)N[C@H](C(N)=O)[C@@H](C)CC)C(C)C)[C@@H](C)CC)[C@@H](C)CC)C(C)C)[C@@H](C)CC` [d] (Lauroyl-KRLKKIGKVLKWIAKIVGSI-NH2), the “Retention time tR” value in data set [2] amounted to 22.8 min. In data set [2], the “Hydrophobicity ΔtR” value is 9.6. The MIC is above 32 µM against E.coli ATCC 25922; 32 µM (≈ 78.7 µg/mL) against S.aureus ATCC 25923 (ATCC 25923, 18 h); 16 µM (≈ 39.4 µg/mL) against A.baumanni ATCC 19606; 32 µM (≈ 78.7 µg/mL) against K.pneumoniae ATCC 700603; above 32 µM with P.aeruginosa ATCC 27853; 32 µM (≈ 78.7 µg/mL) with S.epidermidis ATCC 12228. Also, the “membranolytic (haemolytic) effect” value in data set [1] was “significant lytic effect”. For the same compound, in the data set with HaCaT cell line, the “HC50 (cytotoxicity on HaCaT cells)” value is below 32 µM. In addition, in data set [4], the “solubility in Müller-Hinton broth” value is recorded as “low solubility”.
Regarding Ac-KRLKKIGKVLKWI-NH2, the cleaved bond entry with chymotrypsin is reported as “Leu21-Lys22, first_seen, within a 30-min incubation”.
Same read-out and setting: next, Pal-KRLKKIGKVLKWIAKIVGSI-NH2: “Leu14-Lys15, after longer incubation times; also recorded: Leu21-Lys22, after longer incubation times; also recorded: Trp23-Ile24, after longer incubation times”.
